Data taken from ChEMBL document CHEMBL3611995, “Chalcone scaffolds as anti-infective agents: structural and molecular target perspectives” (Eur J Med Chem, 2015).
In brackets after ≈: the same amount, converted by molar mass. One block for each compound: values may come before it.

How the values were obtained:
[1] = Inhibition of beta-hematin formation; format: physicochemical
[2] = Selectivity index, ratio of cytotoxicity for human HeLa cells to IC50 for anti-parasitic activity against chloroquine-resistant Plasmodium falciparum W2; format: toxicity, cell-based; conditions: read-out: Selectivity Index
[3] = target: Plasmepsin II (Plasmodium falciparum) (UniProt P46925); test: (§1) Inhibition of Plasmodium falciparum plasmepsin 2; conditions: concentration not given here
Sequence of Plasmepsin II (Plasmodium falciparum) (P46925 125-453 limits assumed): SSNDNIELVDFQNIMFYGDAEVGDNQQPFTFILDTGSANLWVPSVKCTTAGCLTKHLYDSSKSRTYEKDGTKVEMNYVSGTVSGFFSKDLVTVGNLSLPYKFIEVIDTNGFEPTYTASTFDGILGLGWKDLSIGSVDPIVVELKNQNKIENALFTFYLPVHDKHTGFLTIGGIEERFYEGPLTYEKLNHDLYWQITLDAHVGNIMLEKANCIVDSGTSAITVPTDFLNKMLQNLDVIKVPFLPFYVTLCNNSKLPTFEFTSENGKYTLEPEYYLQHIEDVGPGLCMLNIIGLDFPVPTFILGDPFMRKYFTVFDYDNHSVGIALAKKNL

Plasmodium falciparum [4] = test: Anti-parasitic activity against chloroquine-resistant Plasmodium falciparum W2; format: functional, organism-based
Plasmodium falciparum [5] = test: Anti-parasitic activity against chloroquine-susceptible Plasmodium falciparum D6; format: functional, organism-based
Leishmania amazonensis [6] = test: Anti-leishmanial activity against Leishmania amazonensis intracellular amastigotes; format: functional; conditions: read-out: ED50
Leishmania amazonensis [7] = test: Anti-leishmanial activity against Leishmania amazonensis promastigotes; format: functional; conditions: read-out: ED50
Plasmepsin II = Plasmepsin II (Plasmodium falciparum, UniProt P46925); test: as §1
Sequence of Plasmepsin II (P46925 whole entry): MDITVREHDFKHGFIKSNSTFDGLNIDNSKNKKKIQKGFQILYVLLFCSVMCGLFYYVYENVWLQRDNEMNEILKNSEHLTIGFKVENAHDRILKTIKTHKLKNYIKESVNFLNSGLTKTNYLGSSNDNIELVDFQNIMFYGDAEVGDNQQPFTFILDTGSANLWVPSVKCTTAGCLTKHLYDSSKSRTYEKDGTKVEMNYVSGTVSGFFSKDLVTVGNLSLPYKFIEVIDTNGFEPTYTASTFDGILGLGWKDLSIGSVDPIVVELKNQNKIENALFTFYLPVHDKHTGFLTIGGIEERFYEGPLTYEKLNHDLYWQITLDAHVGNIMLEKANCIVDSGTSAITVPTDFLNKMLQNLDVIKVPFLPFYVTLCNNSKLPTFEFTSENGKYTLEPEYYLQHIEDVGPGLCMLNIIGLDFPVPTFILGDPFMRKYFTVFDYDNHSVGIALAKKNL

Plasmodium falciparum [8] = test: Inhibition of Plasmodium falciparum GST; conditions: concentration not given here
[9] = Inhibition of Plasmodium falciparum falcipain
Trichophyton rubrum [10] = test: Antimicrobial activity against Trichophyton rubrum clinical isolates; format: functional
Trichophyton rubrum [11] = test: Antimicrobial activity against Trichophyton rubrum; format: functional
Leishmania major = test: Anti-leishmanial activity against Leishmania major; format: functional, organism-based
Trichophyton rubrum [12] = test: Antimicrobial activity against Trichophyton rubrum with deltaTruMDR2 mutation; format: functional
[13] = Inhibition of Saccharomyces cerevisiae beta-1,3-glucan synthase
[14] = Inhibition of Trichophyton rubrum FAS
Trichophyton rubrum [15] = test: Antimicrobial activity against wild type Trichophyton rubrum MYA3108; format: functional
[16] = Inhibition of Saccharomyces cerevisiae chitin synthase-1
Plasmodium falciparum [17] = test: Anti-parasitic activity against chloroquine-susceptible Plasmodium falciparum 3D7 assessed as reduction in parasite maturation; format: functional
Plasmodium falciparum [18] = test: Anti-parasitic activity against Plasmodium falciparum assessed as inhibition of parasite development from ring to schizont stage; format: functional
Plasmodium falciparum [19] = test: Anti-parasitic activity against Plasmodium falciparum; format: functional
[20] = Inhibition of new permeation pathway in erythrocytes (unknown origin) at 20 uM by sorbitol-induced hemolysis assay; format: functional, cell-based; conditions: Erythrocyte
[21] = Cytotoxicity against human HeLa cells; format: cell-based
Enterovirus = test: Antiviral activity against Rhinovirus infected in human HeLa cells; format: functional, organism-based
Leishmania donovani [22] = test: Anti-leishmanial activity against Leishmania donovani infected in hamsters assessed as reduction in parasite load in liver at 20 mg/kg/day, ip for 6 consecutive days; format: functional
[23] = Inhibition of Plasmodium falciparum succinate-ubiquinone oxidoreductase
Leishmania donovani [24] = test: Anti-leishmanial activity against Leishmania donovani infected in hamsters assessed as reduction in parasite load in liver at 5 to 150 mg/kg/day, po for 6 consecutive days; format: functional
Leishmania donovani [25] = test: Anti-leishmanial activity against Leishmania donovani infected in hamsters assessed as reduction in parasite load in spleen at 5 to 150 mg/kg/day, po for 6 consecutive days; format: functional
[26] = Inhibition of Plasmodium falciparum Cytochrome b-c1 complex
Leishmania donovani [27] = test: Anti-leishmanial activity against Leishmania donovani infected in hamsters assessed as reduction in parasite load in spleen at 20 mg/kg/day, ip for 6 consecutive days; format: functional
[28] = Inhibition of Trypanosoma cruzi trans-sialidase
Plasmodium falciparum [29] = test: Anti-parasitic activity against chloroquine-susceptible Plasmodium falciparum 3D7 assessed as reduction in parasite maturation at 50 ug/ml; format: functional
[30] = Inhibition of Trypanosoma brucei trypanopain

SMILES: COc1ccc(/C=C/C(=O)c2ccccc2)cc1S(=O)(=O)N1CCOCC1
selectivity ratio [2]: 9

SMILES: COc1cc(/C=C/C(=O)c2ccc(NC(=O)Nc3cccc(C(=O)/C=C/c4cc(OC)c(OC)c(OC)c4)c3)cc2)cc(OC)c1OC
inhibition [3]: 87%

SMILES: O=C(/C=C/c1cnc2ccccc2c1)c1cc(Cl)ccc1Cl
IC50 (Plasmodium falciparum [4]): 0.2 µM
IC50 (Plasmodium falciparum [5]): 0.2 µM

SMILES: COc1ccc(C(=O)/C=C/c2ccc(C(F)(F)F)cc2)c(OC)c1
IC50 (Plasmepsin II): 6 µM

SMILES: O=C(/C=C/c1ccc(Cl)cc1)c1ccc(N2CCCCC2)cc1
inhibition (Plasmodium falciparum [8]): 84%

SMILES: COc1cc2cc(/C=C/C(=O)c3ccc(Cl)cc3Cl)cnc2cc1OC
IC50 [9]: 19 µM

SMILES: COc1ccc(C(=O)/C=C/c2ccc(F)cc2F)c(OC)c1
IC50 (Plasmepsin II): 6 µM

SMILES: O=C(/C=C/c1ccc(O)cc1)c1ccccc1 [4-HYDROXYCHALCONE]
IC50 (Leishmania major): 4 µM

SMILES: O=C(/C=C/c1ccccc1)c1ccccc1 [CHALCONE]
MIC (Trichophyton rubrum [12]): 1.9 µg/mL (≈ 9.12 µM)
IC50 [13]: 0.14 µg/mL (≈ 0.672 µM)
IC50 [14]: 68.23 µg/mL (≈ 328 µM)
MIC (Trichophyton rubrum [15]): 7.5 µg/mL (≈ 36 µM)
IC50 [16]: 0.02 µg/mL (≈ 0.096 µM)

SMILES: O=C(/C=C\c1ccnc2ccccc12)c1cc(Cl)ccc1Cl
IC50 (Plasmodium falciparum [4]): 0.2 µM
IC50 (Plasmodium falciparum [5]): 0.2 µM

SMILES: Cc1cccc(C(=O)/C=C(\I)c2cc3ccccc3nc2Cl)c1O
MIC (Plasmodium falciparum [29]): 50 µg/mL (≈ 111 µM)

SMILES: O=C(/C=C/c1cc2ccccc2nc1Cl)c1ccc(Cl)c(Cl)c1Cl
IC50 [30]: 0.24 µM

SMILES: Cc1ccc(S(=O)(=O)Nc2ccc(C(=O)/C=C/c3ccc(O)c(O)c3)cc2)cc1
IC50 [28]: 0.9 µM

The next lines start with results.

IC50 [1]: 0.5 µM
SMILES: O=C(/C=C/c1cccnc1)c1ccc(NS(=O)(=O)c2cc(Cl)ccc2Cl)cc1

EC50 (Leishmania amazonensis [6]): 24 µg/mL (≈ 88.8 µM)
EC50 (Leishmania amazonensis [7]): 0.5 µg/mL (≈ 1.85 µM)
SMILES: COc1cc(O)c(C(=O)/C=C/c2ccccc2)c(O)c1

inhibition (Plasmodium falciparum [8]): 84%
SMILES: COc1ccc(/C=C/C(=O)c2ccc(-n3nnc4ccccc43)cc2)cc1

MIC50 (Trichophyton rubrum [10]): 12.5 µg/mL (≈ 39.2 µM)
MIC90 (Trichophyton rubrum [10]): 25 µg/mL (≈ 78.4 µM)
MIC (Trichophyton rubrum [11]): 12.5 µg/mL (≈ 39.2 µM)
SMILES: COc1cc(O)c(C(=O)/C=C/c2ccccc2Cl)c(OC)c1

MIC (Plasmodium falciparum [17]): 10 µg/mL (≈ 23.6 µM)
SMILES: O=C(/C=C/c1cc2ccccc2nc1Cl)c1cc(Br)cc(Cl)c1O

MIC (Plasmodium falciparum [18]): 2.07 µM (≈ 1.21 µg/mL)
SMILES: COc1cc2c(cc1/C=C/C(=O)c1ccccc1)[C@H]1CC[C@]3(C)[C@@H](Oc4cc(OC)c(OC)c(OC)c4)CC[C@H]3[C@@H]1CC2
GI50 (Plasmodium falciparum [19]): < 5 µM
inhibition [20]: > 70%

IC50 [1]: 0.48 µM
SMILES: COc1ccc(/C=C/C(=O)c2ccc(NS(=O)(=O)c3cc(Cl)ccc3Cl)cc2)c(OC)c1OC

IC50 (Enterovirus): 0.03 µg/mL (≈ 0.0914 µM)
SMILES: CCOc1cc(O)c(C(=O)/C=C/c2ccc(OC)cc2)c(OC)c1
CC50 [21]: 30 µg/mL (≈ 91.4 µM)

inhibition (Plasmodium falciparum [8]): 84%
SMILES: COc1ccc(/C=C/C(=O)c2ccc(N3CCCC3)cc2)cc1

IC50 [23]: ≥ 100 µM
IC50 [26]: 10.8 µM
SMILES: C=CC(C)(C)c1cc(/C=C/C(=O)c2ccc(O)cc2)c(OC)cc1O [LICOAGROCHACONE A]
inhibition in vivo at 20 mg/kg/day (Leishmania donovani [22]): > 96%
inhibition (INH) (Leishmania donovani [24]): >65%
inhibition (INH) (Leishmania donovani [25]): >65%
inhibition in vivo at 20 mg/kg/day (Leishmania donovani [27]): > 96%

IC50 (Leishmania major): 4.54 µM
SMILES: COc1ccc(/C=C/C(=O)c2ccccc2O)c(OC)c1

IC50 [28]: 2.5 µM
SMILES: Cc1ccc(S(=O)(=O)Nc2cccc(C(=O)/C=C/c3ccc(O)c(O)c3)c2)cc1

MIC (Plasmodium falciparum [17]): 10 µg/mL (≈ 21.4 µM)
SMILES: CCOc1ccc2nc(Cl)c(/C=C/C(=O)c3cc(Br)cc(Cl)c3O)cc2c1
